From the NIST ThermoML archive (doi:10.1016/j.fluid.2007.04.023)

Conditions: Liquid, Vibrating tube method

CCCCCCCCCCCC [dodecane]
Conditions	mass density [kg/m3]
342.69 K, 1019 kPa	713.8
342.69 K, 2025 kPa	714.75
342.69 K, 3025 kPa	715.67
342.69 K, 4014 kPa	716.58
342.69 K, 5015 kPa	717.47
342.69 K, 6017 kPa	718.36
342.69 K, 7021 kPa	719.25
342.69 K, 8007 kPa	720.13
342.69 K, 9019 kPa	721.03
342.69 K, 10018 kPa	721.86
342.69 K, 11016 kPa	722.71
342.69 K, 12013 kPa	723.56
342.69 K, 13021 kPa	724.39
342.69 K, 14020 kPa	725.21
342.69 K, 15030 kPa	726.04
342.69 K, 16024 kPa	726.83
342.69 K, 17011 kPa	727.58
342.69 K, 18025 kPa	728.36
342.69 K, 19023 kPa	729.15
342.69 K, 20013 kPa	729.88
342.69 K, 21006 kPa	730.67
342.69 K, 22021 kPa	731.41
342.69 K, 23014 kPa	732.15
342.69 K, 24013 kPa	732.89
342.69 K, 24725 kPa	733.44
352.51 K, 1021 kPa	706.54
352.51 K, 2027 kPa	707.55
352.51 K, 3013 kPa	708.48
352.51 K, 4019 kPa	709.46
352.51 K, 5027 kPa	710.45
352.51 K, 6014 kPa	711.35
352.51 K, 7020 kPa	712.33
352.51 K, 8000 kPa	713.23
352.51 K, 9024 kPa	714.18
352.51 K, 10009 kPa	715.07
352.51 K, 11022 kPa	715.96
352.51 K, 12012 kPa	716.84
352.51 K, 13026 kPa	717.71
352.51 K, 14017 kPa	718.6
352.51 K, 15021 kPa	719.45
352.51 K, 16022 kPa	720.3
352.51 K, 17012 kPa	721.08
352.51 K, 18027 kPa	721.95
352.51 K, 19013 kPa	722.74
352.51 K, 20028 kPa	723.53
352.51 K, 21021 kPa	724.33
352.51 K, 22023 kPa	725.14
352.51 K, 23008 kPa	725.88
352.51 K, 24020 kPa	726.65
352.51 K, 24813 kPa	727.31
362.29 K, 1015 kPa	699.21
362.29 K, 2020 kPa	700.31
362.29 K, 3015 kPa	701.33
362.29 K, 4012 kPa	702.34
362.29 K, 5029 kPa	703.4
362.29 K, 6009 kPa	704.36
362.29 K, 7029 kPa	705.38
362.29 K, 8013 kPa	706.3
362.29 K, 9012 kPa	707.31
362.29 K, 10038 kPa	708.31
362.29 K, 11027 kPa	709.22
362.29 K, 12009 kPa	710.09
362.29 K, 13007 kPa	711.04
362.29 K, 14015 kPa	711.96
362.29 K, 15008 kPa	712.81
362.29 K, 16034 kPa	713.71
362.29 K, 17030 kPa	714.59
362.29 K, 18011 kPa	715.43
362.29 K, 19021 kPa	716.29
362.29 K, 20007 kPa	717.15
362.29 K, 21017 kPa	717.94
362.29 K, 22032 kPa	718.77
362.29 K, 23002 kPa	719.6
362.29 K, 24005 kPa	720.38
362.29 K, 24809 kPa	721.05
